Laboratory results taken from patent publication US20240342190A1, “METHODS FOR REDUCING ISCHEMIA-REPERFUSION INJURIES” (BioMimetix JV, LLC, priority 2023, published 2024).

Tested on: young male Wistar rats subjected to 90 min of MCAO (ischemic stroke)
Test: Experiment 1: acute stroke outcome after 90 min MCAO, intracarotid BMX-001 then subcutaneous for 7 days
Assay type: in vivo, rat
Description: The rats were fasted overnight for glucose control. On the surgery day, they were anesthetized with 5% isoflurane in 30% oxygen balanced with nitrogen. The trachea was orally intubated, and both lungs were mechanically ventilated to maintain normocapnia. Isoflurane was reduced to 1.5% during the surgical procedure. A 22-gauge needle thermistor was percutaneously inserted beneath the temporalis muscle adjacent to the skull. The pericranial temperature was maintained at 37.0° C.±0.2° C. by a surface heat lamp. The tail artery was cannulated with PE 50 tubing (BD Intramedic™ Polyethylene Tubing, Sparks, MD, USA), and arterial blood pressure was continuously monitored. 50 IU of heparin was given via arterial line to prevent intra-arterial thrombosis. Arterial blood samples were collected pre, during, and after ischemia for blood gas, glucose, and hematocrit measurements.
Ischemic stroke was induced by transiently occluding the middle cerebral artery (MCAO) as previously reported.^23,24 Briefly, a midline cervical incision was made and the right common carotid artery […] was identified. The external and internal carotid arteries were dissected. […] The internal carotid artery (ICA) was dissected distally until the origin of the pterygopalatine artery was visualized. After surgical preparation, a 10 min interval was allowed for physiologic stabilization. […] The common carotid artery was re-opened, and a timer was started as the onset of cerebral ischemia.
After 90 min of MCAO, the filament was removed and a PE-10 tube (BD Intramedic™ Polyethylene Tubing, Sparks, MD, USA) was inserted into the ICA beyond the origin of the pterygopalatine artery. The vehicle or BMX-001 (30-50 μg/kg) solution (1 μl/g for both solutions, 250 μl for the 250 g rat) was slowly infused for 5 minutes via syringe pump. At the completion of intra-carotid infusion, the PE tube was removed and the ECA stump was permanently ligated. The tail artery catheter was removed and both the neck incision and tail incision were infiltrated with bupivacaine and closed with suture. Isoflurane was discontinued. Rats were disconnected from the ventilator when they attained spontaneous respiration and kept in a recovery cage. The tracheas were extubated after recovery of the righting reflex. They were in an O2 enriched environment (30% O2) for 1 h and then returned to the home cage.
Post-stroke neurologic deficits were assessed at day 7 and 28 using a standardized neurological scoring system.^27,28 General status, simple motor deficit, complex motor deficit, and sensory deficit were evaluated, including the ability of walking on a beam and climbing on the vertical screen. The total score each animal received was the sum of all four individual scores (0-48, 0=normal and 48=the worst score).
Upon the completion of functional tests, the animals were weighed, anesthetized with isoflurane, and decapitated. The brains were harvested, frozen at −20° C. in 2-methylbutane on dry ice, and stored in a −80° C. freezer. Serial quadruplicate 20-μm-thick coronal sections were cut using a Leica cryostat and mounted on the slides at 720-μm interval over the rostral-caudal extent of the brain. The sections were dried on a slide heater at 36° C., and stained with hematoxylin and eosin. A section from each […] interval was digitized with a video camera controlled by an image analyzer (MCID, the MicroComputer Imaging Device, Imaging Research Inc, St. Catharines, Ontario, Canada). […] With the observer blinded to the experimental condition, the following regions of interest (ROI) were outlined individually using an operator-controlled cursor, including non-infarcted ipsilateral cerebral cortex, non-infarcted ipsilateral subcortex, contralateral cerebral cortex, and contralateral subcortex. The area in each ROI (mm^2) was determined by automated counting of calibrated pixels and the volume (mm^3) was computed by the known interval between sections over the rostral-caudal extent of brain. […]

In the case of `CCCCOCC[n+]1ccccc1C1=C2C=CC3=[N+]2[Mn]24[n]5c1ccc5C(c1cccc[n+]1CCOCCCC)=C1C=CC(=[N+]12)C(c1cccc[n+]1CCOCCCC)=c1ccc([n]14)=C3c1cccc[n+]1CCOCCCC` [BMX-001, MnTnBuOE-2-PyP^5+], the “Perioperative blood pressure (FIG. 1, Panel A), in words” value (5 min vs 45 min post-treatment) is reported as “lower blood pressure”, the Perioperative blood pressure (10 minutes post-ischemia, after 30 μg/kg intracarotid BMX-001, p=0.04 vs vehicle) is reported as 75±4 mmHg and the Body weight (24 hours post-stroke) is reported as 252±9 grams. The “Post-stroke body weight recovery (FIG. 1, Panel B), in words” value (body weight at 7 Days vs 24 hours, p=0.02) was “promoted post-stroke body weight recovery”, the “Infarct volume (FIG. 1, Panel D), in words” value (day 7 post-stroke) was “significantly improved” and the “Neurologic scores (FIG. 1, Panel C), in words” value (day 7 post-stroke) was “significantly improved”. For the same compound, the Body weight (day 7 post-stroke, p=0.02 vs 24 hours) was 279±9 grams, the Subcortex infarct (day 7 post-stroke, p=0.02 vs vehicle) was 38.964 ±8.892 mm^3 and the Total infarct (day 7 post-stroke, p=0.04 vs vehicle) was 89.097±48.424 mm^3. For the same compound, the Cortex infarct (day 7 post-stroke, p=0.07 vs vehicle) was 49.864±42.899 mm^3 and the Neurologic score (post-stroke day 7, score 0-48 (0=normal), median±IQR, p<0.01 vs vehicle) was 4±3.5.
